In patent US7955852B2, “Expansion of renewable stem cell populations” (Gamida Cell Ltd., priority 2002, dated 2011):

Columns and labels:
[1] = test system: CD34+ cells; test: Ex-vivo expansion of CD34+ cell enriched cord blood cultures with cytokines; cell counts and FACS surface antigen analysis; format: cell-based, human; settings: for CD34+ cells per ml: three weeks, SCF, FLt3, IL-6, IL-3, re-selected; for CD34+ (×10^4): 10^−5M
Description: Human blood cells were obtained from umbilical cord blood from female patients following full-term, normal delivery (informed consent was obtained).
Samples were collected and processed within 12 hours postpartum. Blood was mixed with 3% Gelatin (Sigma, St. Louis, Mo.), sedimented for 30 minutes to remove most red blood cells. […] The mononuclear cell fraction in the interface layer was collected, washed three times and resuspended in phosphate-buffered saline (PBS) solution (Biological Industries) containing 0.5% bovine serum albumin (BSA, Fraction V; Sigma).
To purify CD34^+ mononuclear cells, the fraction was subjected to two cycles of immuno-magnetic separation using the MiniMACS® or Clinimax® CD34 Progenitor Cell Isolation Kit (Miltenyi Biotec, Auburn, Calif.) as per manufacturer's recommendations.
CD34^+ expressing purified cells above were cultured in 24-well Costar Cell Culture Clusters (Corning Inc., Corning, N.Y.) or culture bags (American Fluoroseal Corp), at a concentration of 10^4 cells/ml in alpha medium (Biological Industries, Beit Haemek, Israel) supplemented with 10% fetal bovine serum (FBS, Biological Industries). The following human recombinant cytokines were added: Thrombopoietin (TPO), interleukin-6 (IL-6), FLT-3 ligand and stem cell factor (SCF), all at final concentrations of 50 ng/ml each, though occasionally IL-3, at a concentration of 20 ng/ml, was added either together or instead of SCF. For non-hematopoietic cell differentiation, FGF, EGF, NGF, VEGF, LIF or Hepatocyte growth factor (HGF) were used to supplement the growth medium, either alone or in various combinations. All cytokines used were purchased from Perpo Tech, Inc. (Rocky Hill, N.J.). The cultures were incubated at 37° C., 5% CO2, in a humidified atmosphere.
At weekly intervals, cell cultures were toped and semi-depopulated and were supplemented with fresh medium, serum and cytokines or supplemented with fresh growth medium, alone. At predetermined time points, cells were harvested, stained with trypan blue, counted, and cell morphology was determined via the use of cytospin (Shandon, UK)-prepared smears stained with May-Grunwald/Giemsa solutions.
CD34^+ purified and whole MNC cultures were prepared and maintained as described above. […] The antagonist was added for a predetermined, limited period, for up to three weeks or continuously during the entire culture period.
Cells were harvested, washed with a PBS solution containing 1% bovine sera albumin (BSA) and 0.1% sodium azide (Sigma), and stained at 4° C. for 60 minutes with fluorescein isothiocyanate or phycoerythrin-conjugated antibodies (all from Immunoquality Products, the Netherlands). The cells were then washed with the same buffer and analyzed by FACS caliber or Facstarplus flow cytometers. Cells were passed at a rate of 1000 cells/second, using saline as the sheath fluid. A 488 nm argon laser beam served as the light source for excitation. Emission of ten thousand cells was measured using logarithmic amplification, and analyzed using CellQuest software. Negative control staining of cells was accomplished with mouse IgG-PE (Dako A/S Glostrup, Denmark) and mouse IgG-FITC (BD Biosciences, Erembodegem, Belgium).
CD34 surface expression on short and long-term cultures initiated either with purified CD34^+ cells or the entire MNC fraction was determined as follows: CD34^+ cells were positively reselected (Miltenyi kit) and counted. Purity was confirmed by subsequent FACS and cell morphology analysis.
Reselected CD34^+ cell subsets were stained for the following combination of antigens: CD34PE/CD38FITC and CD34PE/38, 33, 14, 15, 3, 4, 61, 19 (Lin) FITC. The fraction positive for CD34 and negative for CD38 was defined as CD34^+CD38^−. The fraction positive for CD34 and negative for LIN was defined as CD34^+Lin^− cell fraction.
FACS analysis results are given as percentage values of cells. Absolute numbers of subsets are calculated from the absolute number of CD34^+ cells.

[2] = test system: Lin− c-kit+ Sca-1+ murine hematopoietic precursors; settings: cited from earlier work
[3] = test system: HL-60 cells; settings: cited from earlier work
[4] = test system: CD34+ cells; test: Colony forming unit (CFU / LTC-CFUc) ability of ex-vivo CD34+ cell cultures; format: cell-based, human; settings: 10^−5M
Description: Total cell counts, numbers of CD34^+ cells and subsets, and CFU numbers are presented as cumulative numbers, with the assumption that the cultures had not been passaged; i.e., the number of cells per ml were multiplied by the number of passages performed.
Cells were cloned in semi-solid, methylcellulose-containing medium supplemented with 2 IU/ml erythropoietin (Eprex, Cilag AG Int., Switzerland), stem cell factor and IL-3, both at 20 ng/ml, and G-CSF and GM-CSF, both at 10 ng/ml (all from Perpo Tech). Cultures were incubated for 14 days at 37° C., 5% CO2 in a humidified atmosphere.
Briefly, the ability of the cultures to maintain self-renewal was measured by determination of the content of colony forming unit cells in the long and extended long-term cultures (LTC-CFUc), as described in the references hereinabove.

[5] = TPO, FLT3, IL-6, IL-3, 3 weeks after seeding

CCCOc1cc2c(cc1\C(C)=C/C=C/C(C)=C/C(=O)O)C(C)(C)CCC2(C)C [LGN 100754]
activity on ex vivo expansion of stem/progenitor cells ([1]; 10^−7 M, along with IL-3, 3 and 5 weeks): no activity

CC1=C(/C=C/C(C)=C/C=C/C(C)=C/C(=O)O)C(C)(C)CCC1 [ATRA, all-trans-retinoic-acid]
generation of colony-forming cell (CFC) and colony-forming unit-spleen (CFU-S) ([2]; 1 μmol): enhanced

NC(=O)c1cccnc1 [Nicotinamide]
CD34+ cells per ml ([1]; 1 mM, TPO): 99 ×10^4 CD34+ cells per ml | CD34+ cells per ml ([1]; 5 mM, TPO): 180 ×10^4 CD34+ cells per ml | CD38 activity and differentiation [3]: inhibited

Cc1ccc(C2=CCC(C)(C)c3ccc(C#Cc4ccc(C(=O)O)cc4)cc32)cc1 [AGN 193109]
increase in the pre-CFU-S population ([2]; cultured for 7 days): approximately 6 fold | short- or long-term repopulating ability ([2]; cultured for 7 days): virtually no short- or long-term repopulating ability

CN1c2ccc([N+](=O)[O-])cc2N=C(c2ccc(C(=O)O)cc2)c2cc3c(cc21)C(C)(C)CCC3(C)C [HX-531, 4-[5H-2,3-(2,5-Dimethyl-2,5-Hexano) 5-Methyl-8-nitrodibenzo [b,e][1,4]diazepin-11-yl) Benzoic acid]
CD34+ (×10^4) ([1]; 5 weeks after seeding): 1636 ×10^4 | CD34+ (×10^4) ([1]; 9 weeks after seeding): 4977 ×10^4 | CD34+ (×10^4) ([1]; 11 weeks after seeding): 4055 ×10^4 | CD34+ (×10^4) [1, 5]: 167 ×10^4 | CFU (×10^3), mixed ([4]; 3 weeks after seeding, mixed colonies): (120 mixed) ×10^3 | CFU (×10^3) ([4]; 5 weeks after seeding): 8542 ×10^3 | CFU (×10^3) ([4]; 9 weeks after seeding): 36557 ×10^3 | CFU (×10^3) ([4]; 11 weeks after seeding): 67338 ×10^3 | CFU (×10^3) [4, 5]: 1920 ×10^3
